Test results as given in patent publication US7064202B1 (University of Kentucky Research Foundation, priority 2003, dated 2006).

What was measured:
[1] = RP-HPLC stability (decomposition) of 20-OR ester prodrugs in PBS pH 7.4; type: physicochemical
Text: CPT glycinate fragmentation pattern [m/z(%)] was: 406 (25%), 331 (100%), 303 (30%); CPT ortho lactone fragmentation pattern was: 406 (100%), 388 (40%), 303 (20%). […] HPLC data for each analog studied was consistent with the generation of the novel decomposition products, along with the lactone and carboxylate forms of the parent drug. […] N-methyl CPT glycinate fragmentation pattern [m/z(%)] was: 420 (86%), 331 (100%), 303 (30%); CPT N-methyl ortho lactone fragmentation pattern was: 420 (100%), 402 (50%), 303 (37%). As in the case for the camptothecin glycinate ester, the novel degradation products were generated from the proposed lactam intermediate. Further evidence for proposed degradation products 3 and 4 includes: (1) Glycine carbonyl ^13C isotopic labeling NMR experiment in PBS showing that this carbon exists as a tetrahedral carbon as in 3. (2) Glycine ^15N isotopic labeling NMR experiments showing that 3 and 4 have amide bonds.

[2] = type: in vitro ADME, human; settings: for prodrug decomposition: PBS pH 7.4, human plasma and blood, RP-HPLC
[3] = Stability of free and core-loaded liposomal prodrug in whole blood

## CCC1(OC(=O)CCCN)C(=O)OCc2c1cc1n(c2=O)Cc2cc3ccccc3nc2-1 (stereo not drawn) [R=COCH2CH2CH2NH2, camptothecin 4-aminobutanoate ester]
[1]; buffer, pH 7.4
  half-life of decomposition: 36.7 h

## CCc1c2c(nc3ccc(O)cc13)-c1cc3c(c(=O)n1C2)COC(=O)C3(CC)OC(=O)CN (stereo not drawn) [SN-38 glycinate ester]
[2]
  prodrug decomposition: extensive chemical (i.e. non-enzymatic) decomposition

## CC[C@@]1(OC(C)=O)C(=O)OCc2c1cc1n(c2=O)Cc2cc3ccccc3nc2-1 [camptothecin-20(S)-acetate, reference compound]
[2]; pH 7.4
  stability / hydrolysis: excellent stability

## CCC1(OC(=O)CN)C(=O)OCc2c1cc1n(c2=O)Cc2cc3ccccc3nc2-1 [camptothecin-20(S)-glycinate 1, camptothecin-20(S)-glycinate]
[2]
  prodrug decomposition: extensive chemical (i.e. non-enzymatic) decomposition
[1]; 1 μM, PBS (pH 7.4), 37° C., within 3 hours
  decomposition: ~90%

## DB-67 4-aminobutanoate ester
[3]
  decomposition of free prodrug: extensive
